Assay results from patent US20230399314A1, “CD73 INHIBITOR AND USE THEREOF” (WUHAN HUMANWELL INNOVATIVE DRUG RESEARCH AND DEVELOPMENT …, priority 2020, published 2023).

Assays:
[1] = Plasma protein binding by equilibrium dialysis, canine plasma; assay type: in vitro ADME; settings: dog, 37° C.
Protocol: (§1) Plasma protein binding rates of the compounds were detected by equilibrium dialysis (HTDialysis, HTD 96b). The compound was diluted with DMSO to form a 0.5 mM stock solution, and the stock solution was diluted 25 times with a 0.05 M sodium phosphate buffer to form a 20 μM working solution. Plasma was placed in a new 96-well plate according to 380 μL/well, then the working solution was added to and uniformly mixed with the plasma according to 20 μL/well, the final concentration of the compound was 1 μM, and each well contained 0.2% DMSO.
(§2) 100 μL of 0.05 M sodium phosphate buffer was added to a receiving side of each dialysis chamber (HTD 96b), and 100 μL of plasma containing the compound was added to a supply side. The dialysis apparatus was closed with a plastic lid, and incubated with shaking at 37° C. for 5 h.
(§3) After the incubation was completed, 25 μL of sample was collected respectively from the supply side and the receiving side of the dialysis chamber, and placed in a new 96-well plate, an equal volume of blank plasma was added to and uniformly mixed with each sample on the supply side, an equal volume of 0.05 M sodium phosphate buffer was added to and uniformly mixed with each sample on the receiving side. 200 μL of acetonitrile solution containing the internal standard was added to each well, the 96-well plate was vortex-shaken at 600 rpm for 10 min, and centrifuged at 5,594 g for 15 min (Thermo Multifuge×3R), 50 μL of supernatant was transferred to a new 96-well plate, and the sample was mixed with 50 μL of ultrapure water and subjected to LC-MS/MS analysis.
(§4) A plasma protein binding rate and a fraction unbound in plasma were calculated according to the following formulas:
(§5) % binding rate=100×([supply side concentration]5h−[receiving side concentration]5h)/[supply side concentration]5h; and
(§6) % fraction unbound in plasma=100−% binding rate.

[2] = Pharmacokinetic test on dogs; assay type: in vivo, male Beagle dogs; settings: for AUC(0-t) / Cmax / Tmax / half-life / clearance / Vd: male, Beagle, plasma, dog; for Vd: read-out: Vz
Protocol: (§7) In a pharmacokinetic test on mice, male ICR mice of 20 g to 25 g were used and fasted overnight. 3 mice were selected for orally intragastric administration (10 mg/kg). Before administration, and 15 min, 30 min, 1 h, 2 h, 4 h, 8 h, and 24 h after administration, blood was sampled from each mouse. Another 3 mice were selected for intravenous injection administration (3 mg/kg), and before administration, and 15 min, 30 min, 1 h, 2 h, 4 h, 8 h, and 24 h after administration, blood was sampled from each mouse. The blood sample was centrifuged at 6,800 g and 2 to 8° C. for 6 min, and plasma was collected and stored at −80° C. The plasma of each time point was vortex-mixed for 1 min with an acetonitrile solution containing the internal standard with a volume 3-5 times that of the plasma of each time point, and centrifuged at 13,000 rpm and 4° C. for 10 min, a supernatant was collected and mixed with water with a volume 3 times that of the supernatant, and an appropriate amount of the mixed solution was used for LC-MS/MS analysis. The main pharmacokinetic parameters were analyzed by using a WinNonlin 7.0 non-compartmental model.
In a pharmacokinetic test on dogs, male Beagle dogs of 8 to 10 kg were used and fasted overnight. 3 Beagle dogs were selected for orally intragastric administration (5 mg/kg). Another 3 Beagle dogs were selected for intravenous injection administration (1 mg/kg). Other operations were the same as the pharmacokinetic test on mice.

Human CD4+ T cells = assay: Relieving AMP-induced proliferation inhibition of human CD4+ T cells (CCK8); assay type: cell-based; settings: Homo sapiens, 120 h, AMP 0.3 mM, day 5
Protocol: On day 1 of the experiment, CD4^+ T cells (Allcells Shanghai, PB009-2F-C) were thawed, and inoculated into two replicate wells according to 3×10^4 cells/well and 50 μL/well. The compound was diluted with a complete medium to form a stock solution (4×) of an appropriate concentration gradient, the compound solution was added to the above cells according to 50 μL/well, and the mixture was pre-incubated at 37° C. for 30 min. […] Meanwhile, a positive reference group (Human CD4^+ T+IL-2+CD3/CD28 beads) and a negative reference group (Human CD4^+ T+IL-2+CD3/CD28 beads+AMP) were set. AMP (Sigma; A1752-5G) was diluted with a complete medium to form an AMP solution (4×), the AMP solution was added to the above cells according to 50 μL/well, the final concentration was 0.3 mM, and the mixture was incubated at 37° C. On day 3 of the experiment, the AMP solution was added to the above plate according to 20 μL/well, and the final concentration was 0.3 mM. On day 5, the proliferation of the cells was detected by using a CCK8 kit (DojinDO; CK04).
Inhibition rates of the compound at different concentrations in relieving AMP-induced proliferation inhibition of CD4^+ T cells were calculated according to the following formula, the concentration of the compound was taken as the X-axis, the inhibition rate was taken as the Y-axis, and an EC50 value of the compound in relieving the AMP-induced proliferation inhibition of CD4^+ T cells was calculated by using Prism software.

Human-CD73 enzyme = Human-CD73 enzyme (Homo sapiens (Human), UniProt P21589); assay: In vitro inhibitory activity to recombinant human CD73 enzyme (ATP-GLO); assay type: biochemical; settings: Human-CD73 0.1 μg/mL, AMP 100 μM
Protocol: Human-CD73 (Novoprotein; C446) was diluted with Tris-MgCl2 buffer to form a stock solution (3×), which was placed in a 96-well plate according to 20 μL/well to obtain a final concentration of 0.1 μg/mL. The compound was diluted with Tris-MgCl2 buffer to form a stock solution (3×) of an appropriate concentration gradient, the compound solution was added to the above 96-well plate according to 20 μL/well and uniformly mixed with the Human-CD73 solution, and the mixture was incubated at the room temperature for 30 min. Meanwhile, a positive reference group (without the compound) and a negative reference group (without CD73) were set. AMP (Sigma; A1752-5G) was diluted with Tris-MgCl2 buffer to form a stock solution (3×), which was added to the above 96-well plate according to 20 μL/well to obtain a final concentration of 100 μM, and the mixture was uniformly mixed and incubated at 37° C. for 60 min; ATP (Sigma; A7699-1G) was diluted with Tris-MgCl2 buffer to form a stock solution (7×), which was added to the above 96-well plate according to 10 μL/well to obtain a final concentration of 100 μM, and the mixture was uniformly mixed, incubated for 5 min, and tested by using an ATP-GLO kit (Promega; G7573).
(§8) Human-CD73 inhibition rates of the compound at different concentrations were calculated according to the following formula, the concentration of the compound was taken as the X-axis, the inhibition rate was taken as the Y-axis, and an IC50 value of the compound in inhibiting Human-CD73 was calculated by using Prism software.

[3] = Plasma protein binding by equilibrium dialysis, mouse plasma; assay type: in vitro ADME; settings: 37° C.
Protocol: as §1, §2, §3, §4, §5, §6

[4] = Pharmacokinetic test on mice; assay type: in vivo, male ICR mice; settings: for half-life / AUC(0-t) / Cmax / Tmax / clearance / Vd: male, ICR, plasma, mouse; for AUC(0-t): read-out: AUC0-t; for Cmax: read-out: Cmax; for Tmax: read-out: Tmax; for Vd: read-out: Vz
Protocol: as §7

[5] = target: CD73 bound to the surfaces of A375 cells (Homo sapiens (Human), UniProt P21589); assay: Inhibitory activity to CD73 enzyme bound to the surfaces of human melanoma A375 cells; assay type: cell-based; settings: AMP 200 μM, 16 h
Protocol: The compound was diluted with serum-free DMEM to form a stock solution (5×) of an appropriate concentration gradient, the compound solution was added to the cells in the above 96-well plate according to 20 μL/well, and the mixture was placed in an incubator and pre-incubated for 30 min.
as §8, with “A375-bound CD73” for “Human-CD73”

[6] = Plasma protein binding by equilibrium dialysis, human plasma; assay type: in vitro ADME; settings: 37° C.
Protocol: as §1, §2, §3, §4, §5, §6

A375 melanoma = assay: In vivo efficacy on A375 melanoma (PBMC + A375 cells in NCG mice); settings: for Mean ± SEM (tumor size): in mm³ (unit assumed)
Protocol: A375 cells in logarithmic growth phase were collected, cultured in Mitomycin C for 2 h, and washed three times with PBS. After 5 days of co-culture of PBMC and A375 cells, PBMC and freshly digested A375 cells were collected, 5×10^5 PBMC and 4×10^6 A375 cells were inoculated subcutaneously on the right side of NCG mice according to 0.2 mL/mouse (containing 50% Matrigel). After inoculation, the mice were randomly divided into a model group and an administration group according to body weight of the mice, tumor size and animal weight were measured and recorded before and during administration, and tumor sizes of the model group and the administration group were compared after treatment to determine the efficacy.

[7] = po, orally intragastric 5 mg/kg
[8] = po, orally intragastric 10 mg/kg
[9] = compound 40 mg/kg + anti PD-1 10 mg/kg

Chain of CD73 bound to the surfaces of A375 cells (P21589 27-574): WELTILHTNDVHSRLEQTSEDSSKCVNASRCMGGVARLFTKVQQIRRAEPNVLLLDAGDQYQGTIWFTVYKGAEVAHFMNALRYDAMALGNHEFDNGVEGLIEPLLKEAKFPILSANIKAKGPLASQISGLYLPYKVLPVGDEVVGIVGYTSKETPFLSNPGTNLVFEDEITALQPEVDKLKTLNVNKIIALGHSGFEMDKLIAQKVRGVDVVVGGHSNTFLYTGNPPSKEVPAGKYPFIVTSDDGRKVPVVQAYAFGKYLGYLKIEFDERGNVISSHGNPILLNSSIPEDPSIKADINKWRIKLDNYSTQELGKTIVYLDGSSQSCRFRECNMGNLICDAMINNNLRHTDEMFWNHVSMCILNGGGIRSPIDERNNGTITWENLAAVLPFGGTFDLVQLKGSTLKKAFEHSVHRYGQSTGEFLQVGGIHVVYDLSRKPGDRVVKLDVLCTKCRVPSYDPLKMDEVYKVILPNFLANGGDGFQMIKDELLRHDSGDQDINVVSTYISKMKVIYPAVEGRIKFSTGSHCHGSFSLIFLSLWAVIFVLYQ
Chain of Human-CD73 enzyme (P21589 27-574): as above

Row | Compound | fraction unbound at 5 h, 1 μM [1] | AUC(0-t) [2, 7] | Cmax [2, 7] | Tmax [2, 7] | half-life [2, 7] | AUC(0-t) ([2]; intravenous injection 1 mg/kg) | clearance ([2]; intravenous injection 1 mg/kg) | half-life ([2]; intravenous injection 1 mg/kg) | Vd ([2]; intravenous injection 1 mg/kg) | EC50 (Human CD4+ T cells) | fraction unbound at 5 h, 1 μM [3] | half-life [4, 8] | AUC(0-t) [4, 8] | Cmax [4, 8] | Tmax [4, 8] | clearance ([4]; intravenous injection 3 mg/kg) | half-life ([4]; intravenous injection 3 mg/kg) | AUC(0-t) ([4]; intravenous injection 3 mg/kg) | Vd ([4]; intravenous injection 3 mg/kg) | IC50 [5] | other results
1 | O=c1[nH]cc(-c2cc([C@H]3C[C@@H]3C(F)F)c(Cl)nn2)c(=O)[nH]1 [Reference compound 2, 5-(6-chloro-5-((1S,2S)-2-(difluoromethyl)cyclopropyl)pyridazin-3-yl)pyrimidine-2,4(1H,3H)-dione, reference compound] | 0.177 | 9000 ng·h/mL | 3620 ng/mL | 0.5 h | 3.3 h | 1560 ng·h/mL | 10.8 mL/min/kg | 1.37 h | 1.33 L/kg | 93.7 nM | 0.261 | 1.09 h | 5380 ng·h/mL | 4540 ng/mL | 0.42 h | 22 mL/min/kg | 1.25 h | 2360 ng·h/mL | 2.4 L/kg | 67.3 nM | IC50 (Human-CD73 enzyme): 16.8 nM; fraction unbound at 5 h, 1 μM [6]: 0.098
2 | O=c1[nH]cc(-c2cc([C@@H]3C[C@H]3C(F)(F)F)c(Cl)nn2)c(=O)[nH]1 [Compound 4, 5-(6-chloro-5-((1R,2R)-2-(trifluoromethyl)cyclopropyl)pyridazin-3-yl)pyrimidine-2,4(1H,3H)-dione] | – | 65700 ng·h/mL | 7550 ng/mL | 1.17 h | 4.13 h | 5810 ng·h/mL | 3 mL/min/kg | 3.63 h | 0.95 L/kg | 1070 nM | – | 2.85 h | 185000 ng·h/mL | 16100 ng/mL | 3 h | 3.33 mL/min/kg | 3.68 h | 15200 ng·h/mL | 1.05 L/kg | 134 nM | exposure compared to the reference compounds ([2]; dogs): much higher; IC50 (Human-CD73 enzyme): 58.4 nM; pharmacokinetic properties compared to the reference compounds ([4]; mice): significantly improved
3 | Cc1nnc(-c2c[nH]c(=O)[nH]c2=O)cc1[C@H]1C[C@@H]1C(C)C [Reference compound 3, 5-(5-((1S,2R)-2-isopropylcyclopropyl)-6-methylpyridazin-3-yl)pyrimidine-2,4(1H,3H)-dione, reference compound] | 0.126 | 1540 ng·h/mL | 1200 ng/mL | 0.42 h | 0.93 h | 512 ng·h/mL | 36 mL/min/kg | 0.39 h | 1.14 L/kg | 341 nM | 0.122 | 1.19 h | 1270 ng·h/mL | 1270 ng/mL | 0.33 h | 70 mL/min/kg | 0.28 h | 730 ng·h/mL | 1.67 L/kg | – | % TGI (A375 melanoma; [9]): 41.52%; Mean ± SEM (tumor size) (A375 melanoma; [9]): 1149 ± 167.8; fraction unbound at 5 h, 1 μM [6]: 0.103
4 | O=c1[nH]cc(-c2cc([C@H]3C[C@@H]3CF)c(Cl)nn2)c(=O)[nH]1 [Compound 1, 5-(6-chloro-5-((1S,2S)-2-(fluoromethyl)cyclopropyl)pyridazin-3-yl)pyrimidine-2,4(1H,3H)-dione] | 0.245 | 16900 ng·h/mL | 5480 ng/mL | 1.17 h | 2.67 h | 1460 ng·h/mL | 12.2 mL/min/kg | 0.94 h | 0.99 L/kg | 71.9 nM | 0.474 | 3.31 h | 5720 ng·h/mL | 4300 ng/mL | 0.42 h | – | – | – | – | 30.7 nM | % TGI (A375 melanoma; [9]): 63.68%; Mean ± SEM (tumor size) (A375 melanoma; [9]): 713.7 ± 89.22; fraction unbound at 5 h, 1 μM [6]: 0.274
5 | Toripalimab [anti PD-1] | – | – | – | – | – | – | – | – | – | – | – | – | – | – | – | – | – | – | – | – | % TGI (A375 melanoma; anti PD-1 10 mg/kg alone): 25.08%; Mean ± SEM (tumor size) (A375 melanoma; anti PD-1 10 mg/kg alone): 1472 ± 194.9
